One block for each compound: values may come before it.
Columns and labels:
[1] = tested on: HeLa cells; experiment: MTT antiproliferative assay, HeLa; format: cell-based; conditions: Homo sapiens, 72 h; for inhibition at 10 µM / inhibition at 30 µM: read-out: Growth inhibition (%) ± SEM
Description: (§1) The in vitro anticancer effects of the presented compounds were assessed using the standard MTT [3-(4,5-dimethylthiazol2-yl)-2,5-diphenyltetrazolium bromide] assay on the following human cancer cell lines: cervical (HeLa and SiHa), breast (MCF-7 and MDA-MB-231) and ovarian cancer (A2780). The selectivity of the tested compounds was determined on murine embryonal fibroblast cells (NIH/3T3). The utilised cell lines were purchased from the European Collection of Cell Cultures (Salisbury, UK). The cells were cultivated in Eagle’s minimal essential medium supplemented with 10% fetal bovine serum, 1% non-essential amino acids and 1% antibiotic-antimycotic complex (penicillin, streptomycin, amphotericin B) at 37 °C in a humidified atmosphere containing 5% CO2. All media and supplements were purchased from Lonza Group Ltd. (Basel, Switzerland). The cancer cells were seeded into 96-well plates (5000 cells/well) and incubated overnight, and the test compounds were applied in two different concentrations (10 µM and 30 µM) and incubated for another 72 h under cell-culturing conditions. […] After 72 h, 20 µL of the 5 mg/mL MTT solution was added to each well, and the plates were incubated for 4 h. The medium was removed, and the formazan crystals produced by the mitochondrial activity were dissolved in dimethyl sulfoxide (DMSO) via shaking at 37 °C for 30 min. The absorbances were measured at 545 nm using a microplate reader (SPECTROStar Nano, BMG Labtech, Offenburg, Germany). The reference agent was cisplatin, which is a widely used cytotoxic agent. The IC50 values were calculated using sigmoid curve fitting. Two independent experiments were performed with five parallel wells for each condition. Calculations were performed using the GraphPad Prism 9 software (GraphPad Software Inc., San Diego, CA, USA).

[2] = tested on: SiHa cells; experiment: MTT antiproliferative assay, SiHa; format: cell-based; conditions: Homo sapiens, 72 h; for inhibition at 10 µM / inhibition at 30 µM: read-out: Growth inhibition (%) ± SEM
Description: as §1

[3] = tested on: MCF-7 cells; experiment: MTT antiproliferative assay, MCF-7; format: cell-based; conditions: Homo sapiens, MCF7; for inhibition at 10 µM: MCF-7, 10 μM; for inhibition at 10 µM / inhibition at 30 µM: 72 h, read-out: Growth inhibition (%) ± SEM; for inhibition at 30 µM: MCF-7, 30 μM
Description: as §1

[4] = tested on: MDA-MB-231 cells; experiment: MTT antiproliferative assay, MDA-MB-231; format: cell-based; conditions: Homo sapiens; for inhibition at 10 µM: MDA-MB-231, 10 μM; for inhibition at 10 µM / inhibition at 30 µM: 72 h, read-out: Growth inhibition (%) ± SEM; for inhibition at 30 µM: MDA-MB-231, 30 μM
Description: as §1

[5] = tested on: A2780 cells; experiment: MTT antiproliferative assay, A2780; format: cell-based; conditions: Homo sapiens; for inhibition at 10 µM: A2780, 10 μM; for inhibition at 10 µM / inhibition at 30 µM: 72 h, read-out: Growth inhibition (%) ± SEM; for inhibition at 30 µM: A2780, 30 μM
Description: as §1

[6] = tested on: NIH/3T3 fibroblast cells; experiment: MTT assay on non-malignant fibroblasts (selectivity); format: cell-based, murine; conditions: Mus musculus, NIH3T3; for inhibition at 10 µM: NIH/3T3, 10 μM; for inhibition at 10 µM / inhibition at 30 µM: 72 h, read-out: Growth inhibition (%) ± SEM; for inhibition at 30 µM: NIH/3T3, 30 μM
Description: as §1

Structure (SMILES): CC[C@H](N[C@@H]1C[C@]23CC[C@H]4[C@@](C)(CCC[C@@]4(C)C(=O)OC)[C@@H]2CC[C@@]1(CO)C3)c1ccccc1 [Compound 11, (4R,4aS,6aR,8R,9R,11aR,11bS)-Methyl 9-(hydroxymethyl)-4,11b-dimethyl-8-(((S)-1-phenylpropyl)amino)tetradecahydro-6a,9-methanocyclohepta[a]naphthalene-4-carboxylate]
inhibition at 10 µM [1]: < 20% | inhibition at 30 µM [1]: 94.48 ± 0.84% | inhibition at 10 µM [2]: < 20% | inhibition at 30 µM [2]: 83.7 ± 3.19% | inhibition at 10 µM [3]: 49.5 ± 3.06% | inhibition at 30 µM [3]: 96.94 ± 0.57% | inhibition at 10 µM [4]: < 20% | inhibition at 30 µM [4]: 90.8 ± 1.35% | inhibition at 10 µM [5]: 74.2 ± 2.1% | inhibition at 30 µM [5]: 98.12 ± 0.3% | inhibition at 10 µM [6]: 22.2 ± 2.22% | inhibition at 30 µM [6]: 93.6 ± 2.02% | melting point: 88 to 95 °C

Structure (SMILES): COC(=O)[C@]1(C)CCC[C@@]2(C)[C@@H]3CC[C@@]4(CO)C[C@]3(CC[C@@H]21)C[C@H]4N[C@H](C)c1ccc2ccccc2c1 [Compound 17, (4R,4aS,6aR,8R,9R,11aR,11bS)-Methyl 9-(hydroxymethyl)-4,11b-dimethyl-8-(((R)-1-(naphthalen-2-yl)ethyl)amino)tetradecahydro-6a,9-methanocyclohepta[a]naphthalene-4-carboxylate]
inhibition at 10 µM [1]: 90.5 ± 1.34% | inhibition at 30 µM [1]: 93.5 ± 2.5% | IC50 ([1]; read-out: calculated IC50): 3.51 µM | inhibition at 10 µM [2]: 83.3 ± 1.58% | inhibition at 30 µM [2]: 86.7 ± 1.74% | IC50 ([2]; read-out: calculated IC50): 5.37 µM | inhibition at 10 µM [3]: 86.3 ± 2.86% | inhibition at 30 µM [3]: 97.42 ± 0.71% | IC50 ([3]; MCF-7, 72 h, read-out: calculated IC50): 2.47 µM | IC50 ([4]; MDA-MB-231, 72 h, read-out: calculated IC50): 5.62 µM | inhibition at 10 µM [4]: 91.5 ± 1.24% | inhibition at 30 µM [4]: 95.03 ± 0.91% | IC50 ([5]; A2780, 72 h, read-out: calculated IC50): 4.06 µM | inhibition at 10 µM [5]: 100.6 ± 0.76% | inhibition at 30 µM [5]: 100 ± 0.91% | inhibition at 10 µM [6]: 20.5 ± 1.7% | inhibition at 30 µM [6]: 96.54 ± 0.62% | IC50 ([6]; NIH/3T3, 72 h, read-out: calculated IC50): 8.7 µM | melting point: 150 to 153 °C

Structure (SMILES): COC(=O)[C@]1(C)CCC[C@@]2(C)[C@@H]3CC[C@@]4(CN[C@@H](C)c5ccc6ccccc6c5)C[C@]3(CC[C@@H]21)C[C@H]4O [Compound 30, (4R,4aS,6aR,8R,9S,11aR,11bS)-Methyl 8-hydroxy-4,11b-dimethyl-9-((((S)-1-(naphthalen-2-yl)ethyl)amino)methyl)tetradecahydro-6a,9-methanocyclohepta[a]naphthalene-4-carboxylate]
inhibition at 10 µM [1]: 40.8 ± 0.99% | inhibition at 30 µM [1]: 94.51 ± 0.19% | inhibition at 10 µM [2]: < 20% | inhibition at 30 µM [2]: 101.4 ± 0.6% | inhibition at 10 µM [3]: 79.5 ± 1.01% | inhibition at 30 µM [3]: 95.63 ± 0.55% | inhibition at 10 µM [4]: 50.7 ± 3.21% | inhibition at 30 µM [4]: 98.7 ± 0.49% | inhibition at 10 µM [5]: 33.1 ± 1.23% | inhibition at 30 µM [5]: 99.71 ± 0.27% | inhibition at 10 µM [6]: 21.5 ± 0.48% | inhibition at 30 µM [6]: 100.7 ± 0.2% | melting point: 102 to 106 °C

Structure (SMILES): COC(=O)C1(C)CCCC2(C)C3CCC4(CN)CC3(CCC12)CC4O [Compound 31, (4. R,4aS,6aR,8R,9S,11aR,11bS)-Methyl 9-(aminomethyl)-8-hydroxy-4,11b-dimethyltetradecahydro-6a,9-methanocyclohepta[a]naphthalene-4-carboxylate]
inhibition at 10 µM [1]: < 20% | inhibition at 30 µM [1]: 96.02 ± 0.89% | inhibition at 10 µM [2]: < 20% | inhibition at 30 µM [2]: 95.68 ± 0.81% | inhibition at 10 µM [3]: 72.7 ± 3.15% | inhibition at 30 µM [3]: 99.42 ± 0.23% | inhibition at 10 µM [4]: 49.5 ± 3.47% | inhibition at 30 µM [4]: 96.82 ± 0.65% | inhibition at 10 µM [5]: 37.3 ± 1.04% | inhibition at 30 µM [5]: 97.52 ± 0.8% | inhibition at 10 µM [6]: < 20% | inhibition at 30 µM [6]: 97.62 ± 0.71% | melting point: 64 to 68 °C

Second part, led by results:

melting point: 174 to 176 °C
Structure (SMILES): CC[C@@H](N[C@@H]1C[C@]23CC[C@H]4[C@@](C)(CCC[C@@]4(C)C(=O)OC)[C@@H]2CC[C@@]1(CO)C3)c1ccccc1 [Compound 12, (4R,4aS,6aR,8R,9R,11aR,11bS)-Methyl 9-(hydroxymethyl)-4,11b-dimethyl-8-(((R)-1-phenylpropyl)amino)tetradecahydro-6a,9-methanocyclohepta[a]naphthalene-4-carboxylate]
inhibition at 10 µM [1]: < 20% | inhibition at 30 µM [1]: 90.8 ± 3.71% | inhibition at 10 µM [2]: < 20% | inhibition at 30 µM [2]: 82.4 ± 2.09% | inhibition at 10 µM [3]: 48.6 ± 0.5% | inhibition at 30 µM [3]: 92.3 ± 2.89% | inhibition at 10 µM [4]: < 20% | inhibition at 30 µM [4]: 91.6 ± 2.36% | inhibition at 10 µM [5]: 64.7 ± 1.95% | inhibition at 30 µM [5]: 98.32 ± 0.23% | inhibition at 10 µM [6]: 29.2 ± 1.33% | inhibition at 30 µM [6]: 95.53 ± 0.49%

melting point: 180 to 185 °C
Structure (SMILES): COC(=O)[C@]1(C)CCC[C@@]2(C)[C@@H]3CC[C@@]4(CO)C[C@]3(CC[C@@H]21)C[C@H]4N[C@H](C)c1cccc2ccccc12 [Compound 13, (4R,4aS,6aR,8R,9R,11aR,11bS)-Methyl 9-(hydroxymethyl)-4,11b-dimethyl-8-(((R)-1-(naphthalen-1-yl)ethyl)amino)tetradecahydro-6a,9-methanocyclohepta[a]naphthalene-4-carboxylate]
inhibition at 10 µM [1]: < 20% | inhibition at 30 µM [1]: 92.3 ± 2.7% | inhibition at 10 µM [2]: 24.2 ± 3.46% | inhibition at 30 µM [2]: 87.9 ± 1.62% | inhibition at 10 µM [3]: 56.7 ± 3.88% | inhibition at 30 µM [3]: 96.84 ± 0.55% | inhibition at 10 µM [4]: < 20% | inhibition at 30 µM [4]: 94.3 ± 1.83% | inhibition at 10 µM [5]: 83.7 ± 1.95% | inhibition at 30 µM [5]: 99.02 ± 0.39% | inhibition at 10 µM [6]: < 20% | inhibition at 30 µM [6]: 96.88 ± 0.74%

melting point: 151 to 157 °C
Structure (SMILES): COC(=O)[C@]1(C)CCC[C@@]2(C)[C@@H]3CC[C@@]4(CO)C[C@]3(CC[C@@H]21)C[C@H]4N[C@@H](C)c1cccc2ccccc12 [Compound 14, (4R,4aS,6aR,8R,9R,11aR,11bS)-Methyl 9-(hydroxymethyl)-4,11b-dimethyl-8-(((S)-1-(naphthalen-1-yl)ethyl)amino)tetradecahydro-6a,9-methanocyclohepta[a]naphthalene-4-carboxylate]
inhibition at 10 µM [1]: 24.6 ± 2.79% | inhibition at 30 µM [1]: 95.1 ± 1.6% | inhibition at 10 µM [2]: 34.1 ± 2.53% | inhibition at 30 µM [2]: 88.88 ± 0.87% | inhibition at 10 µM [3]: 78.9 ± 4.11% | inhibition at 30 µM [3]: 97.44 ± 0.53% | inhibition at 10 µM [4]: 53.2 ± 2.44% | inhibition at 30 µM [4]: 95 ± 1.24% | inhibition at 10 µM [5]: 93.3 ± 1.99% | inhibition at 30 µM [5]: 99.57 ± 0.35% | inhibition at 10 µM [6]: 50.4 ± 2.91% | inhibition at 30 µM [6]: 97.15 ± 0.6%

melting point: 98 to 104 °C
Structure (SMILES): COC(=O)[C@]1(C)CCC[C@@]2(C)[C@@H]3CC[C@@]4(CNCc5ccccc5)C[C@]3(CC[C@@H]21)C[C@H]4O [Compound 22, (4R,4aS,6aR,8R,9S,11aR,11bS)-Methyl 9-((benzylamino)methyl)-8-hydroxy-4,11b-dimethyltetradecahydro-6a,9-methanocyclohepta[a]naphthalene-4-carboxylate]
inhibition at 10 µM [1]: 59.2 ± 6.61% | inhibition at 30 µM [1]: 90.87 ± 0.35% | inhibition at 10 µM [2]: 69 ± 2.02% | inhibition at 30 µM [2]: 80.8 ± 2.91% | inhibition at 10 µM [3]: 90.6 ± 0.98% | inhibition at 30 µM [3]: 94.23 ± 0.82% | inhibition at 10 µM [4]: 90.95 ± 0.4% | inhibition at 30 µM [4]: 89.66 ± 0.28% | inhibition at 10 µM [5]: 69.5 ± 3.98% | inhibition at 30 µM [5]: 96.04 ± 0.45% | inhibition at 10 µM [6]: 49 ± 1.37% | inhibition at 30 µM [6]: 94.25 ± 0.45%

melting point: 137 to 140 °C
Structure (SMILES): COC(=O)[C@]1(C)CCC[C@@]2(C)[C@@H]3CC[C@@]4(Cn5cc(-c6ccccc6)nn5)C[C@]3(CC[C@@H]21)CC4=O [Compound 33, (4R,4aS,6aR,9S,11aR,11bS)-Methyl 4,11b-dimethyl-8-oxo-9-((4-phenyl-1H-1,2,3-triazol-1-yl)methyl)tetradecahydro-6a,9-methanocyclohepta[a]naphthalene-4-carboxylate]
inhibition at 10 µM [1]: < 20% | inhibition at 30 µM [1]: 23.9 ± 5.01% | inhibition at 10 µM [2]: < 20% | inhibition at 30 µM [2]: < 20% | inhibition at 10 µM [3]: 57.1 ± 2.13% | inhibition at 30 µM [3]: 60.3 ± 3.65% | inhibition at 10 µM [4]: < 20% | inhibition at 30 µM [4]: < 20% | inhibition at 10 µM [5]: 41.1 ± 1.23% | inhibition at 30 µM [5]: 51.5 ± 1.41% | inhibition at 10 µM [6]: 54.5 ± 1.93% | inhibition at 30 µM [6]: 78.9 ± 2.52%
